Measurements reported in patent US9308238B2, “Compositions and methods for modulating EMT and uses thereof” (Whitehead Institute for Biomedical Research, priority 2010, dated 2016).

B1: BMP4: Recombinant BMP4 protein obtained from Stemgent (protein, UniProt P12644 293-408, looked up)
Bone morphogenetic protein 4: SPKHHSQRARKKNKNCRRHSLYVDFSDVGWNDWIVAPPGYQAFYCHGDCPFPLADHLNSTNHAIVQTLVNSVNSSIPKACCVPTELSAISMLYLDEYDKVVLKNYQEMVVEGCGCR

Experiments:
Assay type in all cases: cell-based, human
[1] = system: Smad transcriptional activity; assay: Smad luciferase reporter assay (SBE4-luc), HMLE^24+ cells; conditions: HMLE^24+ cells treated with TGF-beta (5 ng/ml, 30 min)
Text: (§1) FIGS. 12A-12F. Concomitant stimulation of Wnt and TGF-beta pathways allows HMLE^24+ cells to enter into a mesenchymal and SC-like state. (FIG. 12A) RT-PCR: SFRP1, L32 was loading control, n=3; SFRP1 mRNA levels in HMLE^24+ stably expressing two hairpin-encoding vectors (shSFRP1a and -b) compared cells expressing a control hairpin targeting GFP (shGFP), HMLE^24+-shSFRP1b were used for iEMT experiments. (FIG. 12B) Flow cytometry: Expression of CD44 and CD24 cell-surface markers in HMLE, HMLE^24+-shGFP and -shSFRP1 cells. […] (FIG. 12F) Growth curves: proliferation of indicated cell lines was monitored by the MTS assay for 3 days, 8 passages after cessation of 14 day treatment as described in (D), n=12.
Luciferase assays. […] Lysates were collected 24-48 hr after transfection, and firefly and Renilla luciferase activities were measured with a Dual-Luciferase Reporter System (Promega).

[2] = system: HMLE^24+ cells; assay: Flow cytometry of CD44/CD24, HMLE^24+ cells after 14 day treatment; conditions: control 0.2%
Experimental: FIGS. 5A-5H. Concomitant stimulation of Wnt and TGF-beta pathways allows HMLE^24+ cells to enter into a mesenchymal and SC-like state. (FIG. 5A) RT-PCR: N-Cadherin, Zeb1 and Zeb2, L32 was loading control, n=3. Prior RNA isolation, HMLE^24+-shGFP or -shSFRP1 (stable knockdown of SFRP1, FIG. 12A) cells were treated for 3 days with daily doses of indicated factors: anti-DKK1 antibody (10 μg/ml), anti-E-Cadherin antibody (1 μg/ml), TGF-beta 1 (5 ng/ml), Wnt5a (250 ng/ml), (FIG. 5B) Brightfield microscopy: images of control, TGF-beta- and iEMT-cocktail treated HMLE^24+ cells after 14 days of treatment as indicated (see also FIG. 12D). (FIG. 5C) RT-PCR: Zeb1, Zeb2, E-Cadherin and N-Cadherin, L32 was loading control, n=3. After 14 day treatment, cells were expanded in absence of further stimulation for 4 passages. […] (FIG. 5G) Lung metastasis: cells expanded for 8 passages after cessation of treatment as described in (C) were transformed with RAS; 1.0×10^5 cells were injected into the mammary fat pads of mice; GFP-labeled metastases on the surface of the lungs were quantified; *control vs. all other groups, p<0.05, n=5 mice/group. […]
Fluorescent activated cell sorting (FACS) and flow cytometry. […] Samples were sorted on a BD FACSAria SORP and analyzed on a BD LSRII using BD FACSDiva Software (BD Biosciences).

[3] = system: HMLE^24+ cells; assay: Proliferation in adherent monolayer cultures after 14 day treatment; conditions: after cessation of 14 day treatment
Text: as §1
Proliferation Assays. […] Cell viability was measured using CellTiter-Glo (Promega) according to the manufacturer's instructions.

[4] = system: primary MECs; assay: Proliferation of primary MECs; conditions: data not shown
Text: We also undertook to test whether the autocrine loops operating in HTwist and MSP cells enabled basal MECs to maintain their self-renewal and migratory abilities. […] In addition, we blocked autocrine Wnt signaling through application of recombinant SFRP1. After a 5-day, daily treatment with both TGF-beta inhibitors or SFRP1 in monolayer cultures, basal cells were submitted to migration and mammosphere assays in the absence of further treatment.
Primary mammary epithelial cell culture. Single-cell suspensions of primary human mammary epithelial cells (MECs) were generated from reduction mammoplasties of pre-menopausal women as previously described (Stingl et al., 2001), Data from three donors are included in this study. Primary MECs were cultured on collagen I-coated plates (Millipore) in MEGM medium (Lonza) supplemented with 1% Fetal Bovine Serum in a humidified 4% O2, 5% CO2, atmosphere.

| Molecule | upregulation of Smad-reporter activity [1] [fold] | proportion of CD44high/CD24low-negative cells [2] [%] | proliferation rates in adherent monolayer cultures [3] | effect on proliferation of primary MECs [4] |
| --- | --- | --- | --- | --- |
| TGF-beta 1: recombinant TGF-beta 1 protein, used at 5 ng/ml | 1.5 | 1.5 | stably lower |  |
| B1 |  |  |  | strong anti-proliferative effect |
